Data set [1] can be described thus: Elution test of ethenzamide. The conditions noted are these: molded product at 50 MPa or pulverized bulk drug. The format is physicochemical. On the procedure:
0.2 g of the obtained mixed powder was weighed and put in a mortar (manufactured by Kikusui Seisakusho, Ltd. using materials SUS2, 3) and compressed with a round plane mallet (manufactured by Kikusui Seisakusho, Ltd. using materials SUS2, […], trade name, PCM-1A, compression rate 1 cm/min) and after held at the aimed pressure for 10 seconds, a columnar molded product was taken out. […]
1 g of Cellulose Aggregate G was added to 10 mL of a solution in which ethenzamide (manufactured by API Co., Ltd., a powder grade was pulverized with a small size pulverizer) was dissolved in ethanol (manufactured by Wako Pure Chemical Industries, Ltd., special grade chemical) in a ratio of 5:95 and stirred by a magnetic stirrer for three minutes. The obtained dispersion was introduced into an evaporator and completely deprived of solvent to obtain a powder sample.
Similarly operating as in Example 14 except that the pressure at the time of preparing a columnar molded product from this powder was changed to 50 MPa and elution test was performed.
Only the ethenzamide pulverized by the method of Example 15 was subjected to elution test.

Data set [2] is described as follows: Reactivity with pharmacological agent (aspirin decomposition ratio on storage). The data set is classed as physicochemical. The conditions noted are these: 60° C., airtight, two weeks.
Protocol: Aspirin (official crystal aspirin one pass treated with a small pulverizer φ 0.5 mm) and each cellulose sample were blended by powder-powder in 5/5 (total amount: 0.5 g) in dry process and mixed in glass sample bottle and stored with airtight stopper (60° C.) in an oven (manufactured by Tabai Espec, trade name, perfect oven) for two weeks and decomposition ratio was measured. […] 0.25 g of aspirin after stored (0.5 g for powder blend product) was introduced into a 50 mL measuring flask and added with ethanol to total 50 mL and shaken for five minutes. The resulted ethanol solution was filtered and the filtrate was transferred to a 100 mL measuring flask and added with ethanol to total 100 mL. 1 mL of this ethanol solution and 1 mL of the above color identification test liquid were introduced into a 50 mL measuring flask and added with pure water to total 50 mL and absorbance at wavelength 532 nm was measured with an ultraviolet absorbance measuring instrument (manufactured by JASCO Corp.). The decomposition ratio was calculated as follows: Decomposition ratio=(1−(absorbance after stored/absorbance before stored))×100(%).

For the molecule `CCOc1ccccc1C(N)=O` [Bulk Ethenzamide, ethenzamide], in data set [1], the “Dissolution Rate after 1 hour” value is listed as 9%.
For the molecule `CC(=O)Oc1ccccc1C(=O)O` [aspirin, Aspirin], in data set [2], the aspirin decomposition ratio was found to be 15%.

(Values after patent US8597686B2, “Porous cellulose aggregate and formed product composition comprising the same” (Asahi Kasei Chemicals Corporation, priority 2004, dated 2013).)
